Where two headings read alike, the source gives them in different places.
Experiments:
[1] = tested on: T. b. rhodesiense STIB-900; test: In vitro drug susceptibility, T. b. rhodesiense STIB-900 (resazurin); assay type: cell-based, Trypanosoma brucei rhodesiense
Procedure: (§1) All trypanosome strains were cultured in the standard HMI-9 medium supplemented with 10% fetal bovine serum (FBS) at 37° C. in a 5% CO2 atmosphere.

[2] = tested on: T. cruzi Tulahuen CL2 β galactosidase strain; test: T. cruzi Tulahuen CL2 β galactosidase strain on MRC-5SV2 cells (CPRG); assay type: cell-based, Trypanosoma cruzi
Procedure: All cultures and assays were conducted at 37° C./5% CO2. […] The results were expressed as % reduction in parasite burdens compared to control wells from which an EC50 was calculated.

T. brucei Squib 427 = test: In vitro drug susceptibility, T. brucei Squib 427 (resazurin); assay type: cell-based, Trypanosoma brucei brucei
Procedure: as §1

MRC-5 fibroblasts = test: in vitro
Procedure: (§2) Cytotoxicity was assayed against MRC-5 fibroblasts. Results are depicted in Tables 4 and 5.

[3] = Cytotoxicity against MRC-5 fibroblasts; details: human
Procedure: as §2

[4] = Table 1, average of 2-4 independent determinations, read-out: T. brucei rhod. EC50
[5] = Table 2, average of 2-3 independent replicates
[6] = Table 1, average of 2-4 independent determinations, read-out: T. brucei brucei EC50
[7] = Trypanosoma brucei, RHODESIENSE, read-out: T. brucei rhod. EC50
[8] = Trypanosoma cruzi, TULAHUEN, MRC-5 SV2, Table 2, average of 2-3 independent replicates
[9] = Trypanosoma brucei, read-out: T. brucei brucei EC50, Table 1, average of 2-4 independent determinations
[10] = Trypanosoma brucei, RHODESIENSE, read-out: T.b. rhod. EC50
[11] = Trypanosoma cruzi, TULAHUEN, MRC-5 SV2, Table 5, average of 2-4 independent replicates
[12] = Trypanosoma brucei, read-out: T.b. brucei EC50, Table 4, average of 2-6 independent determinations
[13] = MRC-5 fibroblasts, MRC-5 EC50, Table 4, cytotoxicity
[14] = MRC-5 fibroblasts, MRC-5 EC50, Table 5, cytotoxicity
[15] = MRC-5 fibroblasts, MRC-5 EC50, Table 1, cytotoxicity
[16] = MRC-5 fibroblasts, MRC-5 EC50, Table 2, cytotoxicity
[17] = Trypanosoma brucei, RHODESIENSE, Table 1, average of 2-4 independent determinations, read-out: T. brucei rhod. EC50
[18] = Trypanosoma brucei, Table 1, average of 2-4 independent determinations, read-out: T. brucei brucei EC50

CSC[C@@H]1C[C@@H](O)[C@H](n2cc(Br)c3c(N)ncnc32)O1 [FH9527, 4-amino-5-bromo-N7-(3′-deoxy-5′-thiomethyl-β-D-ribofuranosyl)-pyrrolo[2,3-d]pyrimidine]
EC50 [1, 4]: 22300 nM
EC50 [2, 5]: 25000 nM
EC50 (T. brucei Squib 427; [6]): 32500 nM
EC50 (MRC-5 fibroblasts): 15300 nM

Nc1ncnc2c1c(Cl)cn2[C@@H]1O[C@H](CO)C[C@H]1O [FH8470]
EC50 [1, 7]: 0.4 nM
EC50 [2, 8]: 50 nM
EC50 (T. brucei Squib 427; [9]): 2 nM

Nc1ncnc2c1c(-c1cccc(Cl)n1)cn2[C@@H]1O[C@H](CO)[C@@H](O)[C@H]1O [MS1034, 4-amino-5-(6-chloro-pyrid-2-yl)-N7-(β-D-ribofuranosyl)-pyrrolo[2,3-d]pyrimidine]
EC50 [1, 10]: 620 nM
EC50 [2, 11]: > 64000 nM
EC50 (T. brucei Squib 427; [12]): 1750 nM
EC50 [3, 13]: > 64000 nM
EC50 [3, 14]: > 64000 nM

Nc1ncnc2c1c(Br)cn2[C@@H]1O[C@H](CO)C[C@@H]1O [FH10628, 4-amino-5-bromo-N7-(2′-arabino-3′-deoxy-β-D-ribofuranosyl)-pyrrolo[2,3-d]pyrimidine]
EC50 [1, 7]: 30 nM
EC50 [2, 8]: 1470 nM
EC50 (T. brucei Squib 427; [9]): 130 nM
EC50 [3, 15]: 45600 nM
EC50 [3, 16]: 45600 nM

CCCCOc1ncnc2c1c(Cl)cn2[C@@H]1O[C@H](CO)[C@@H](O)[C@H]1O [FH9530, 4-n-butoxy-5-chloro-N7-(β-D-ribofuranosyl)-pyrrolo[2,3-d]pyrimidine]
EC50 [1, 10]: 40 nM
EC50 [2, 11]: 450 nM
EC50 (T. brucei Squib 427; [12]): 70 nM
EC50 [3, 13]: 1320 nM
EC50 [3, 14]: 1320 nM

Nc1ncnc2c1c(Br)cn2[C@@H]1O[C@H](CO)C[C@H]1O [FH7429_U, 4-amino-5-bromo-N7-(3′-deoxy-β-D-ribofuranosyl)-pyrrolo[2,3-d]pyrimidine]
EC50 [1, 7]: < 0.5 nM
EC50 [2, 8]: 20 nM
EC50 (T. brucei Squib 427; [9]): 2 nM
EC50 [3, 15]: 16100 nM
EC50 [3, 16]: 16100 nM

Nc1ncnc2c1c(-c1ccc(F)cn1)cn2[C@@H]1O[C@H](CO)[C@@H](O)[C@H]1O [MS1037, 4-amino-5-(5-fluoro-pyrid-2-yl)-N7-(β-D-ribofuranosyl)-pyrrolo[2,3-d]pyrimidine]
EC50 [1, 10]: 1690 nM
EC50 [2, 11]: 31900 nM
EC50 (T. brucei Squib 427; [12]): 4770 nM
EC50 [3, 13]: > 64000 nM
EC50 [3, 14]: > 64000 nM

COc1ncnc2c1c(Br)cn2[C@@H]1O[C@H](CO)[C@@H](O)[C@H]1O [FH9528, 4-methoxy-5-bromo-(N7-β-D-ribofuranosyl)-pyrrolo[2,3-d]pyrimidine]
EC50 [1, 10]: 40 nM
EC50 [2, 11]: 24100 nM
EC50 (T. brucei Squib 427; [12]): 190 nM
EC50 [3, 13]: > 64000 nM
EC50 [3, 14]: > 64000 nM

Cn1cnc(-c2cn([C@@H]3O[C@H](CO)[C@@H](O)[C@H]3O)c3ncnc(N)c23)c1 [FH3182]
EC50 ([2]; Table 5, average of 2-4 independent replicates): 8340 nM
anti-trypanosomal activity against T. brucei, in words (T. brucei Squib 427): low μM activity
EC50 (T. brucei Squib 427; Table 4, average of 2-6 independent determinations, read-out: T.b. brucei EC50): 4760 nM
EC50 (MRC-5 fibroblasts): 23400 nM

Nc1ncnc2c1c(-c1ccc3ccccc3c1)cn2[C@@H]1O[C@H](CO)C[C@H]1O [FH9575, 4-amino-5-(2-naftyl)-N7-(3′-deoxy-β-D-ribfuranosyl)-pyrrolo[2,3-d]pyrimidine]
EC50 [1, 4]: 2000 nM
EC50 [2, 5]: 720 nM
EC50 (T. brucei Squib 427; [6]): 18600 nM
EC50 (MRC-5 fibroblasts): 5000 nM

Cc1ccc(-c2cn([C@@H]3O[C@H](CO)C[C@H]3O)c3ncnc(N)c23)cc1 [FH8481, 4-amino-5-(4-methylphenyl)-N7-(3′-deoxy-β-D-ribofuranosyl)-pyrrolo[2,3-d]pyrimidine]
EC50 [1, 7]: 18400 nM
EC50 [2, 8]: 460 nM
EC50 (T. brucei Squib 427; [9]): 33200 nM
EC50 [3, 15]: 21000 nM
EC50 [3, 16]: 21000 nM

CC(C)(C)[Si](C)(C)OC[C@@H]1C[C@@H](O)[C@H](n2cc(Br)c3c(N)ncnc32)O1 [FH8471, 4-Amino-5-Bromo-N7-(3′-Deoxy-5′-O-t-Butyl-Dimethylsilyl)-β-D-Ribofuranosyl-Pyrrolo[2,3-d]pyrimidine]
EC50 [1, 17]: 80 nM
EC50 (T. brucei Squib 427; [18]): 1210 nM
EC50 [3]: 5310 nM

COc1ncnc2c1c(Cl)cn2[C@@H]1O[C@H](CO)[C@@H](O)[C@H]1O [FH8446, 4-methoxy-5-chloro-N7-(β-D-ribfuranosyl)-pyrrolo[2,3-d]pyrimidine]
EC50 [1, 10]: 40 nM
EC50 [2, 11]: 12700 nM
EC50 (T. brucei Squib 427; [12]): 160 nM
EC50 [3, 13]: 48000 nM
EC50 [3, 14]: 48000 nM

Nc1ncnc2c1ccn2[C@@H]1O[C@H](CO)C[C@@H]1O [FH10650, 4-amino-N7-(2′-arabino-3′-deoxy-β-D-ribofuranosyl)-pyrrolo[2,3-d]pyrimidine]
EC50 [1, 7]: 600 nM
EC50 [2, 8]: > 64000 nM
EC50 (T. brucei Squib 427; [9]): 6620 nM
EC50 [3, 15]: > 64000 nM
EC50 [3, 16]: > 64000 nM

CCCOc1ncnc2c1c(Cl)cn2[C@@H]1O[C@H](CO)[C@@H](O)[C@H]1O [FH9532, 4-n-propoxy-5-chloro-N7-(β-D-ribfuranosyl)-pyrrolo[2,3-d]pyrimidine]
EC50 [1, 10]: 80 nM
EC50 [2, 11]: 1040 nM
EC50 (T. brucei Squib 427; [12]): 80 nM
EC50 [3, 13]: 2810 nM
EC50 [3, 14]: 2810 nM

O=C(Cn1ccnc1[N+](=O)[O-])NCc1ccccc1 [Benznidazole, reference compound]
EC50 [2, 8]: 2400 nM

Nc1ccnc2c1c(I)cn2[C@@H]1O[C@H](CO)[C@@H](O)[C@H]1O [FH5319, 3-iodo-4-amino-N1-(β-D-ribofuranosyl)-pyrrolo[2,3-b]pyridine]
EC50 [1, 10]: > 64000 nM
EC50 [2, 11]: 40 nM
EC50 (T. brucei Squib 427; [12]): 400 nM
EC50 [3, 13]: > 64000 nM
EC50 [3, 14]: > 64000 nM

Nc1ncnc2c1c(Br)cn2[C@@H]1O[C@H](CO)[C@@H](O)[C@H]1O [TH1003]
EC50 ([1]; Trypanosoma brucei, RHODESIENSE, Table 4, average of 2-6 independent determinations, read-out: T.b. rhod. EC50): 120 nM
EC50 [2, 11]: 390 nM
EC50 (T. brucei Squib 427; Trypanosoma brucei, Table 4, average of 2-6 independent determinations, read-out: T.b. brucei EC50): 1240 nM
EC50 ([3]; MRC-5 EC50): 33300 nM

CCOc1ncnc2c1c(Cl)cn2[C@@H]1O[C@H](CO)[C@@H](O)[C@H]1O [FH9529, 4-ethoxy-5-chloro-N7-(β-D-ribfuranosyl)-pyrrolo[2,3-d]pyrimidine]
EC50 [1, 10]: 60 nM
EC50 [2, 11]: 6290 nM
EC50 (T. brucei Squib 427; [12]): 120 nM
EC50 [3, 13]: 48500 nM
EC50 [3, 14]: 48500 nM

Nc1ncnc2c1c(-c1ccc(Cl)cc1Cl)cn2[C@@H]1O[C@H](CO)C[C@H]1O [FH9581, 4-amino-5-(2,4-dichlorophenyl)-N7-(3′-deoxy-β-D-ribofuranosyl)-pyrrolo[2,3-d]pyrimidine]
EC50 [1, 7]: 7300 nM
EC50 [2, 8]: 500 nM
EC50 (T. brucei Squib 427; [9]): 19600 nM
EC50 [3, 15]: 19600 nM
EC50 [3, 16]: 19600 nM

CC(C)Oc1ncnc2c1c(Cl)cn2[C@@H]1O[C@H](CO)[C@@H](O)[C@H]1O [FH9531, 4-isopropoxy-5-chloro-N7-(β-D-ribfuranosyl)-pyrrolo[2,3-d]pyrimidine]
EC50 [1, 10]: 100 nM
EC50 [2, 11]: 22700 nM
EC50 (T. brucei Squib 427; [12]): 90 nM
EC50 [3, 13]: > 64000 nM
EC50 [3, 14]: > 64000 nM

Nc1ncnc2c1c(I)cn2[C@@H]1O[C@H](CO)C[C@H]1O [FH8496, 4-amino-5-iodo-N7-(3′-deoxy-β-D-ribfuranosyl)-pyrrolo[2,3-d]pyrimidine]
EC50 [1, 7]: 1 nM
EC50 [2, 8]: 30 nM
EC50 (T. brucei Squib 427; [9]): 10 nM

CC(C)(C)[Si](C)(C)O[C@@H]1C[C@@H](CO)O[C@H]1n1cc(Br)c2c(N)ncnc21 [FH9552, 4-amino-5-bromo-N7-(2′-O-t-butyldimethylsilyl-3′-deoxy-β-D-ribofuranosyl)-pyrrolo[2,3-d]pyrimidine]
EC50 [1, 17]: 270 nM
EC50 (T. brucei Squib 427; [18]): 630 nM
EC50 [3]: > 64000 nM

Nc1ncnc2c1c(-c1cnccn1)cn2[C@@H]1O[C@H](CO)[C@@H](O)[C@H]1O [FH3179, 4-amino-5-(pyrazine-2-yl)-N7-(β-D-ribofuranosyl)-pyrrolo[2,3-d]pyrimidine]
EC50 [2, 11]: 860 nM
EC50 (T. brucei Squib 427; [12]): 1950 nM
cytotoxicity, in words (MRC-5 fibroblasts): submicromolar cytotoxicity
EC50 [3, 13]: 550 nM
EC50 [3, 14]: 550 nM

C=Cc1cn([C@@H]2O[C@H](CO)C[C@H]2O)c2ncnc(N)c12 [FH10659, 4-amino-5-vinyl-N7-(3′-deoxy-β-D-ribfuranosyl)-pyrrolo[2,3-d]pyrimidine]
EC50 [1, 7]: 5 nM
EC50 [2, 8]: 9440 nM
EC50 (T. brucei Squib 427; [9]): 40 nM

Nc1ncnc2c1c(-c1cccnc1)cn2[C@@H]1O[C@H](CO)[C@@H](O)[C@H]1O [FH4185, 4-amino-5-(pyrid-3-yl)-N7-(β-D-ribofuranosyl)-pyrrolo[2,3-d]pyrimidine]
EC50 [2, 11]: 15400 nM
anti-trypanosomal activity against T. brucei, in words (T. brucei Squib 427): no discernible trypanocidal effects
EC50 (T. brucei Squib 427; [12]): > 64000 nM
EC50 [3, 13]: > 64000 nM
EC50 [3, 14]: > 64000 nM

CN(C)c1ncnc2c1c(Br)cn2[C@@H]1O[C@H](CO)C[C@H]1O [FH8522, 4-dimethylamino-5-bromo-N7-(3′-deoxy-β-D-ribofuranosyl)-pyrrolo[2,3-d]pyrimidine]
EC50 [1, 7]: 790 nM
EC50 [2, 8]: 20900 nM
EC50 (T. brucei Squib 427; [9]): 1880 nM
EC50 [3, 15]: > 64000 nM
EC50 [3, 16]: > 64000 nM

Nc1ncnc2c1c(F)cn2[C@@H]1O[C@H](CO)C[C@H]1O [FH8517, 4-amino-5-fluoro-N7-(3′-deoxy-β-D-ribofuranosyl)-pyrrolo[2,3-d]pyrimidine]
EC50 [1, 7]: 0.3 nM
EC50 [2, 8]: 1220 nM
EC50 (T. brucei Squib 427; [9]): 2 nM
EC50 [3, 15]: 3600 nM
EC50 [3, 16]: 3600 nM

Reference: patent US11072628B2, “Nucleoside analogues for the treatment of parasitic infections” (UNIVERSITEIT GENT, priority 2017, dated 2021)
